Measurements reported in patent US20240116985A1, “STAPLED PEPTIDES AND METHODS THEREOF” (priority 2020, published 2024).
Values after ≈ are worked out from the molar mass of the structure shown. Read-outs that look alike come from different tables or passages of the source.

What was measured:
Solubility in PBS = assay type: physicochemical
How it was run: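 The PBS solution was ultracentrifuged and the supernatant analyzed by HPLC. Its peak area was divided by that of a 50 μM peptide DMSO reference injection and multiplied by 50 uM to give solubility.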

[1] = biological target: T1, full-length beta-Catenin (Uniprot ID P35222) (Homo sapiens, UniProt P35222); assay: Fluorescence polarization IC50 (beta-catenin / 5FAM-TCF4 10-53 competition); assay type: binding; conditions: fluorescence polarization
T1 construct: 10 nM full-length beta-Catenin (Uniprot ID P35222)
T1 sequence (P35222 1-781): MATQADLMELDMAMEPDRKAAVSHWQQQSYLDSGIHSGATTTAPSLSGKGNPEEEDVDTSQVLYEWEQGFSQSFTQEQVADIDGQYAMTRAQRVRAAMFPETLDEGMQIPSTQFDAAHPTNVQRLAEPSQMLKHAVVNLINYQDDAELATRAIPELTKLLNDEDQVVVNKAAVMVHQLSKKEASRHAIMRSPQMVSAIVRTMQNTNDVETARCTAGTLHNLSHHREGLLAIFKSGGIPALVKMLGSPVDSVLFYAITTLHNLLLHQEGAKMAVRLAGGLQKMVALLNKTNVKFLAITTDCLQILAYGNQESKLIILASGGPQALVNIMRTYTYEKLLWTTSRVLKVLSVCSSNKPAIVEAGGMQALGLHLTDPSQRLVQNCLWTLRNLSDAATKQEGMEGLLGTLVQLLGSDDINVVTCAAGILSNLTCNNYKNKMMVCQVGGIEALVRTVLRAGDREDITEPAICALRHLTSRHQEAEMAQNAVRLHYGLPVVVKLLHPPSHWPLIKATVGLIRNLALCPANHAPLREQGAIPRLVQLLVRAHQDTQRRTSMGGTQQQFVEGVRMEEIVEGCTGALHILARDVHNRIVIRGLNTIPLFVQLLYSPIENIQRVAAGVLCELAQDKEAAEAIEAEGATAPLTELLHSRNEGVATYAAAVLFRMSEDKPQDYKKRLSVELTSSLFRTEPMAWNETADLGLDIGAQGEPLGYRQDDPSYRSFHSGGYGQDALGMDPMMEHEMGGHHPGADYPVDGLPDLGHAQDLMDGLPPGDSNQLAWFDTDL

[2] = beta-catenin, read-out: FP EC50

SMILES	Solubility (Solubility in PBS) [µM]	IC50 ([1]; read-out: beta-Catenin FP IC50) [nM]	Solubility (Solubility in PBS; Solubility (uM)) [µM]	IC50 [1, 2] [nM]
CC(=O)N1CCC[C@]12CC=CCCCC1(CCCC=CCCCOC(=O)N3CC[C@@](C(=O)N[C@@H](Cc4ccccc4)C(=O)N[C@@H](Cc4ccc5ccccc5c4)C(=O)N[C@@H](CCC(N)=O)C(N)=O)(C3)NC(=O)[C@H](CC(C)C)NC(=O)[C@H](Cc3ccccc3)NC(=O)[C@H](C)NC(=O)[C@H](CCCCNC(C)C)NC(=O)[C@H]([C@@H](C)O)NC(=O)[C@H](CC(=O)O)NC1=O)NC(=O)[C@H](C)NC(=O)[C@H](CC(N)=O)NC2=O (stereo partly drawn) [I-1387, Ac-PL3-Asn-Ala-B5-Asp-Thr-iPrLys-Ala-Phe-Leu-PyrS2-Phe-2NapA-Gln-NH2]	10 (≈ 19.3 µg/mL)	6940	–	–
CC(=O)N1CCC[C@]12CC=CCCCC1(CCCC=CCCCOC(=O)N3CC[C@@](C(=O)N[C@@H](Cc4ccccc4Cl)C(=O)N[C@@H](Cc4csc5ccccc45)C(=O)N[C@H](C(N)=O)[C@@H](C)O)(C3)NC(=O)[C@H](CO)NC(=O)[C@H](Cc3ccccc3)NC(=O)[C@H](C)NC(=O)[C@H](C)NC(=O)[C@H](CC(=O)O)NC(=O)[C@H](CC(=O)O)NC1=O)NC(=O)[C@H](CC1CCCCC1)NC(=O)[C@H](CC(=O)O)NC2=O (stereo partly drawn) [I-1135, Ac-PL3-Asp-Cha-B5-Asp-Asp-Ala-Ala-Phe-Ser-PyrS2-2C1F-BztA-Thr-NH2]	–	20	39 (≈ 74.8 µg/mL)	–
CC(=O)N1CCC[C@]12CC=CCCCC1(CCCC=CCCCOC(=O)N3CC[C@@](C(=O)N[C@@H](Cc4ccccc4)C(=O)N[C@@H](Cc4csc5ccccc45)C(=O)N[C@@H](CCCCN)C(N)=O)(C3)NC(=O)[C@H](CC(C)C)NC(=O)[C@H](Cc3ccccc3)NC(=O)[C@H](C)NC(=O)[C@H](CCCCNC(C)C)NC(=O)[C@H]([C@@H](C)O)NC(=O)[C@H](CC(N)=O)NC1=O)NC(=O)[C@H](C)NC(=O)[C@H](CC(=O)O)NC2=O (stereo partly drawn) [I-1377, Ac-PL3-Asp-Ala-B5-Asn-Thr-iPrLys-Ala-Phe-Leu-PyrS2-Phe-BztA-Lys-NH2]	10 (≈ 19.4 µg/mL)	1000	–	–
CC(=O)N1CCC[C@]12CC=CCCCC1(CCCC=CCCCCCCCC[C@@](C)(C(=O)N[C@@H](Cc3ccccc3Cl)C(=O)N[C@@H](Cc3csc4ccccc34)C(=O)N[C@H](C(N)=O)[C@@H](C)O)NC(=O)[C@H]([C@@H](C)O)NC(=O)[C@H](Cc3ccccc3)NC(=O)[C@H](C)NC(=O)[C@H](C)NC(=O)[C@H](CC(=O)O)NC(=O)[C@H](CC(=O)O)NC1=O)NC(=O)[C@H](CC(C)(C)C)NC(=O)[C@H](CC(=O)O)NC2=O (stereo partly drawn) [I-1262, Ac-PL3-Asp-Npg-B5-Asp-Asp-Ala-Ala-Phe-Thr-S10-2C1F-BztA-Thr-NH2]	–	1120	49 (≈ 92.7 µg/mL)	–
CC(=O)N1CCC[C@H]1C(=O)N[C@@H](CC(=O)O)C(=O)N[C@@H](CC(C)(C)C)C(=O)N[C@]1(C)CCCC=CCCCOC(=O)N2CC[C@@](C(=O)N[C@@H](Cc3ccsc3)C(=O)N[C@@H](Cc3csc4ccccc34)C(=O)N[C@@H](CCC(N)=O)C(N)=O)(C2)NC(=O)[C@H](CC(N)=O)NC(=O)[C@H](Cc2ccccc2)NC(=O)[C@H](C)NC(=O)[C@H](C)NC(=O)[C@H](CC(=O)O)NC(=O)[C@H](CC(=O)O)NC1=O [I-1182, Ac-Pro-Asp-Npg-R5-Asp-Asp-Ala-Ala-Phe-Asn-PyrS2-3Thi-BztA-Gln-NH2]	–	144	48 (≈ 88.9 µg/mL)	–
CC(=O)N1CCC[C@]12CC=CCCCC1(CCCC=CCCCCCC[C@@](C)(C(=O)N[C@@H](Cc3ccccc3Cl)C(=O)N[C@@H](Cc3csc4ccccc34)C(=O)N[C@@H](Cc3c[nH]cn3)C(N)=O)NC(=O)[C@H](CC(C)C)NC(=O)[C@H](Cc3ccccc3)NC(=O)[C@H](C)NC(=O)[C@H](C)NC(=O)[C@H](CC(=O)O)NC(=O)[C@H](CC(=O)O)NC1=O)NC(=O)[C@H](CC(C)(C)C)NC(=O)[C@H](CC(=O)O)NC2=O (stereo partly drawn) [I-1194, Ac-PL3-Asp-Npg-B5-Asp-Asp-Ala-Ala-Phe-Leu-S8-2C1F-BztA-His-NH2]	10 (≈ 19.1 µg/mL)	66.5	–	–
CC(=O)N1CCC[C@]12CC=CCCCC1(CCCC=CCCCOC(=O)N3CC[C@@](C(=O)N[C@@H](Cc4ccccc4)C(=O)N[C@@H](Cc4csc5ccccc45)C(=O)N[C@@H](CCC(N)=O)C(N)=O)(C3)NC(=O)[C@H](CC(C)C)NC(=O)[C@H](Cc3ccccc3)NC(=O)[C@H](C)NC(=O)[C@H](C)NC(=O)[C@H]([C@@H](C)O)NC(=O)[C@H](CC(N)=O)NC1=O)NC(=O)[C@H](C)NC(=O)[C@H](CC(=O)O)NC2=O (stereo partly drawn) [I-1296, Ac-PL3-Asp-Ala-B5-Asn-Thr-Ala-Ala-Phe-Leu-PyrS2-Phe-BztA-Gln-NH2]	10 (≈ 18.4 µg/mL)	3780	–	3780
CC(=O)N1CCC[C@]12CC=CCCCC1(CCCC=CCCCCCC[C@@](C)(C(=O)N[C@@H](Cc3ccsc3)C(=O)N[C@@H](Cc3csc4ccccc34)C(=O)N[C@@H](CCO)C(N)=O)NC(=O)[C@H](CC(C)C)NC(=O)[C@H](Cc3ccccc3)NC(=O)[C@H](C)NC(=O)[C@H](C)NC(=O)[C@H](CC(=O)O)NC(=O)[C@H](CC(=O)O)NC1=O)NC(=O)[C@H](CC(C)(C)C)NC(=O)[C@H](CC(=O)O)NC2=O (stereo partly drawn) [I-1197, Ac-PL3-Asp-Npg-B5-Asp-Asp-Ala-Ala-Phe-Leu-S8-3Thi-BztA-Hse-NH2]	10 (≈ 18.5 µg/mL)	44	–	–

The remaining lines, values ahead:

Solubility (Solubility in PBS) [µM]	IC50 ([1]; read-out: beta-Catenin FP IC50) [nM]	Solubility (Solubility in PBS; Solubility (uM)) [µM]	IC50 [1, 2] [nM]	SMILES
–	479	16 (≈ 30.2 µg/mL)	–	CC(=O)N1CCC[C@]12CC=CCCCC1(CCCC=CCCCOC(=O)N3CC[C@@](C(=O)N[C@@H](Cc4ccsc4)C(=O)N[C@@H](Cc4csc5ccccc45)C(=O)N[C@@H](CCC(N)=O)C(N)=O)(C3)NC(=O)[C@H](CC(C)C)NC(=O)[C@H](Cc3ccccc3)NC(=O)[C@H](C)NC(=O)[C@H](C)NC(=O)[C@H](CC(=O)O)NC(=O)[C@H](CO)NC1=O)NC(=O)[C@H](CC(C)(C)C)NC(=O)[C@H](CC(=O)O)NC2=O (stereo partly drawn) [I-1209, Ac-PL3-Asp-Npg-B5-Ser-Asp-Ala-Ala-Phe-Leu-PyrS2-3Thi-BztA-Gln-NH2]
10 (≈ 19 µg/mL)	216	–	–	CC(=O)N1CCC[C@]12CC=CCCCC1(CCCC=CCCCOC(=O)N3CC[C@@](C(=O)N[C@@H](Cc4ccsc4)C(=O)N[C@@H](Cc4csc5ccccc45)C(=O)N[C@@H](CCC(N)=O)C(N)=O)(C3)NC(=O)[C@H](CC(C)C)NC(=O)[C@H](Cc3ccccc3)NC(=O)[C@H](C)NC(=O)[C@H](C)NC(=O)[C@H](CC(=O)O)NC(=O)[C@H](CCO)NC1=O)NC(=O)[C@H](CC(C)(C)C)NC(=O)[C@H](CC(=O)O)NC2=O (stereo partly drawn) [I-1215, Ac-PL3-Asp-Npg-B5-Hse-Asp-Ala-Ala-Phe-Leu-PyrS2-3Thi-BztA-Gln-NH2]
50 (≈ 96.8 µg/mL)	81	–	–	CC(=O)N1CCC[C@]12CC=CCCCC1(CCCC=CCCCOC(=O)N3CC[C@@](C(=O)N[C@@H](Cc4cccc(C#N)c4)C(=O)N[C@@H](Cc4csc5ccccc45)C(=O)N[C@@H](CCC(N)=O)C(N)=O)(C3)NC(=O)[C@H](CC(C)C)NC(=O)[C@H](Cc3ccccc3)NC(=O)[C@H](C)NC(=O)[C@H](C)NC(=O)[C@H](CC(=O)O)NC(=O)[C@H](CC(=O)O)NC1=O)NC(=O)[C@H](CC(C)(C)C)NC(=O)[C@H](CC(=O)O)NC2=O (stereo partly drawn) [I-1204, Ac-PL3-Asp-Npg-B5-Asp-Asp-Ala-Ala-Phe-Leu-PyrS2-3CNF-BztA-Gln-NH2]
34 (≈ 67.4 µg/mL)	88	–	88	CC(C)C[C@@H]1NC(=O)[C@H](Cc2ccccc2)NC(=O)[C@H](C)NC(=O)[C@H](C)NC(=O)[C@H](CC(=O)O)NC(=O)[C@H](CC(=O)O)NC(=O)C2(CCCC=CCCCOC(=O)N3CC[C@@](C(=O)N[C@@H](Cc4ccccc4)C(=O)N[C@@H](Cc4csc5ccccc45)C(=O)N[C@@H](CCC(N)=O)C(N)=O)(C3)NC1=O)CCCC=CC[C@]1(CCCN1C(=O)CCCN(C)C)C(=O)N[C@@H](CC(=O)O)C(=O)N[C@@H](CC(C)(C)C)C(=O)N2 (stereo partly drawn) [I-1359, NdiMeButC-PL3-Asp-Npg-B5-Asp-Asp-Ala-Ala-Phe-Leu-PyrS2-Phe-BztA-Gln-NH2]
10 (≈ 18.3 µg/mL)	58.5	–	–	CC(=O)N1CCC[C@]12CC=CCCCC1(CCCC=CCCCCCC[C@@](C)(C(=O)N[C@@H](Cc3ccsc3)C(=O)N[C@@H](Cc3csc4ccccc34)C(=O)N[C@@H](CO)C(N)=O)NC(=O)[C@H](CC(C)C)NC(=O)[C@H](Cc3ccccc3)NC(=O)[C@H](C)NC(=O)[C@H](C)NC(=O)[C@H](CC(=O)O)NC(=O)[C@H](CC(=O)O)NC1=O)NC(=O)[C@H](CC(C)(C)C)NC(=O)[C@H](CC(=O)O)NC2=O (stereo partly drawn) [I-1190, Ac-PL3-Asp-Npg-B5-Asp-Asp-Ala-Ala-Phe-Leu-S8-3Thi-BztA-Ser-NH2]
31 (≈ 60.3 µg/mL)	87	–	87	CC(=O)N1CCC[C@]12CC=CCCCC1(CCCC=CCCCOC(=O)N3CC[C@@](C(=O)N[C@@H](Cc4ccsc4)C(=O)N[C@@H](Cc4csc5ccccc45)C(=O)N[C@@H](CCC(N)=O)C(N)=O)(C3)NC(=O)[C@H](CC(C)C)NC(=O)[C@H](Cc3ccccc3)NC(=O)C(C)(C)NC(=O)C(C)(C)NC(=O)[C@H](CC(=O)O)NC(=O)[C@H](CC(=O)O)NC1=O)NC(=O)[C@H](CC(C)(C)C)NC(=O)[C@H](CC(=O)O)NC2=O (stereo partly drawn) [I-1180, Ac-PL3-Asp-Npg-B5-Asp-Asp-Aib-Aib-Phe-Leu-PyrS2-3Thi-BztA-Gln-NH2]
